What was measured:
Type in all cases: cell-based
[1] = system: KM12; test: NCI 60 cell line screen (SRB), Colon Cancer
[2] = system: UO-31; test: NCI 60 cell line screen (SRB), Renal Cancer; details: UO-31 (Renal Cancer)
[3] = system: SR; test: NCI 60 cell line screen (SRB), Leukemia
[4] = system: A498; test: NCI 60 cell line screen (SRB), Renal Cancer
[5] = system: NCI-H322M; test: NCI 60 cell line screen (SRB), Non-Small Cell Lung Cancer
[6] = system: SW-620; test: NCI 60 cell line screen (SRB), Colon Cancer; details: SW-620 (Colon Cancer)
[7] = system: U251; test: NCI 60 cell line screen (SRB), CNS Cancer
[8] = system: UACC-62; test: NCI 60 cell line screen (SRB), Melanoma; details: UACC-62 (Melanoma)
[9] = system: MOLT-4; test: NCI 60 cell line screen (SRB), Leukemia; details: for drug concentration necessary to achieve primary growth inhibition (percentage growth +50): MOLT-4, read from dose response curves FIGS. 10a-10e
[10] = system: RPMI-8226; test: NCI 60 cell line screen (SRB), Leukemia; details: RPMI-8226 (Leukemia)
[11] = system: PC-3; test: NCI 60 cell line screen (SRB), Prostate Cancer; details: PC-3 (Prostate Cancer)
[12] = system: HT29; test: NCI 60 cell line screen (SRB), Colon Cancer
[13] = system: NCI-H522; test: NCI 60 cell line screen (SRB), Non-Small Cell Lung Cancer
[14] = system: COLO 205; test: NCI 60 cell line screen (SRB), Colon Cancer; details: COLO 205 (Colon Cancer)
[15] = system: K-562; test: NCI 60 cell line screen (SRB), Leukemia; details: K-562 (Leukemia)
[16] = system: T-47D; test: NCI 60 cell line screen (SRB), Breast Cancer; details: T-47D (Breast Cancer)
[17] = system: OVCAR-5; test: NCI 60 cell line screen (SRB), Ovarian Cancer; details: OVCAR-5 (Ovarian Cancer)
[18] = system: MDA-MB-435; test: NCI 60 cell line screen (SRB), Breast Cancer; details: MDA-MB-435 (Breast Cancer)
[19] = system: CCRF-CEM; test: NCI 60 cell line screen (SRB), Leukemia
[20] = system: CAKI-1; test: NCI 60 cell line screen (SRB), Renal Cancer; details: CAKI-1 (Renal Cancer)
[21] = system: 786-0; test: NCI 60 cell line screen (SRB), Renal Cancer; details: 786-0 (Renal Cancer)
[22] = system: OVCAR-4; test: NCI 60 cell line screen (SRB), Ovarian Cancer; details: OVCAR-4 (Ovarian Cancer)
[23] = system: HCT-116; test: NCI 60 cell line screen (SRB), Colon Cancer; details: HCT-116 (Colon Cancer)
[24] = system: HOP-62; test: NCI 60 cell line screen (SRB), Non-Small Cell Lung Cancer; details: HOP-62 (Non-Small Cell Lung Cancer)
[25] = system: M14; test: NCI 60 cell line screen (SRB), Melanoma
[26] = system: MDA-N; test: NCI 60 cell line screen (SRB), Breast Cancer
[27] = system: SK-MEL-5; test: NCI 60 cell line screen (SRB), Melanoma; details: SK-MEL-5 (Melanoma)
[28] = system: A549/ATCC; test: NCI 60 cell line screen (SRB), Non-Small Cell Lung Cancer
[29] = system: NCI-H226; test: as above
[30] = system: SK-MEL-28; test: NCI 60 cell line screen (SRB), Melanoma; details: SK-MEL-28 (Melanoma)
[31] = system: SNB-75; test: NCI 60 cell line screen (SRB), CNS Cancer; details: SNB-75 (CNS Cancer)

With `CC(=O)O[C@H]1C(=O)[C@@]2(C)[C@H]([C@H](OC(=O)c3ccccc3)[C@]3(O)C[C@H](OC(=O)[C@H](O)[C@@H](NC(=O)c4ccccc4)c4ccccc4)C(C)=C1C3(C)C)[C@]1(OC(C)=O)CO[C@@H]1C[C@@H]2O` [Paclitaxel, paclitaxel, reference compound] the Log10GI50 [1] was −11.43 M, the Log10LC50 [1] was greater than −4.00 M and the Log10TGI [1] was −4.36 M. The Log10GI50 [2] was −6.09 M, the Log10LC50 [3] was greater than −4.00 M and the Log10TGI [3] was greater than −4.00 M. It also gave a Log10GI50 [4] of −7.14 M, a Log10LC50 [4] of −4.13 M and a Log10GI50 [5] of −10.12 M. It also gave a Log10LC50 [5] greater than −4.00 M, a Log10TGI [5] of −4.46 M and a Log10GI50 [6] of −11.60 M. For the same molecule, the Log10LC50 [6] was greater than −4.00 M, the Log10TGI [6] was greater than −4.00 M and the Log10GI50 [7] was −11.29 M. It also gave a Log10LC50 [7] of −4.15 M, a Log10TGI [7] of −4.32 M and a Log10GI50 [8] of −10.46 M. For the same molecule, the Log10LC50 [8] was −4.19 M, the Log10TGI [8] was −4.71 M and the Log10GI50 ([9]; MOLT-4 (Leukemia)) was −11.07 M. The Log10LC50 ([9]; MOLT-4 (Leukemia)) was greater than −4.00 M, the Log10TGI ([9]; MOLT-4 (Leukemia)) was greater than −4.00 M and the “drug concentration necessary to achieve primary growth inhibition (percentage growth +50)” value [9] was “less than 10^−8 molar”. For the same molecule, the Log10GI50 [10] was less than −13.00 M, the Log10LC50 [10] was greater than −4.00 M and the Log10TGI [10] was greater than −4.00 M. It also gave a Log10GI50 [11] of −10.85 M, a Log10LC50 [11] greater than −4.00 M and a Log10TGI [11] greater than −4.00 M. The Log10GI50 [12] was less than −13.00 M, the Log10LC50 [12] was −4.39 M and the Log10GI50 [13] was greater than −13.00 M. It also gave a Log10LC50 [13] greater than −4.00 M, a Log10TGI [13] of −11.20 M and a Log10GI50 [14] of −11.07 M. It also gave a Log10LC50 [14] greater than −4.41 M, a Log10GI50 [15] of −10.83 M and a Log10LC50 [15] greater than −4.00 M. It also gave a Log10TGI [15] greater than −4.00 M, a Log10GI50 [16] of −9.81 M and a Log10LC50 [16] greater than −4.00 M. It also gave a Log10GI50 [17] of −9.38 M, a Log10LC50 [17] greater than −4.00 M and a Log10TGI [17] of −4.92 M. For the same molecule, the Log10GI50 [18] was less than −13.00 M, the Log10GI50 [19] was −11.61 M and the Log10LC50 [19] was greater than −4.00 M. It also gave a Log10TGI [19] greater than −4.00 M, a Log10LC50 [20] greater than −4.00 M and a Log10GI50 [21] of −8.01 M. The Log10LC50 [21] was greater than −4.00 M, the Log10TGI [21] was greater than −4.00 M and the Log10GI50 [22] was −5.00 M. The Log10LC50 [22] was greater than −4.00 M, the Log10TGI [22] was −4.19 M and the Log10GI50 [23] was less than −13.00 M. The Log10LC50 [23] was greater than −4.00 M, the Log10TGI [23] was −4.82 M and the Log10GI50 [24] was −9.67 M. The Log10LC50 [24] was −4.10 M, the Log10TGI [24] was −4.80 M and the Log10GI50 [25] was −11.73 M. It also gave a Log10LC50 [25] of −4.13 M, a Log10TGI [25] of −4.62 M and a Log10GI50 [26] of less than −13.00 M.
`C[C@@H]1CC[C@H]2[C@@H](C)C(=O)O[C@@H]3O[C@@]4(C)CC[C@@H]1[C@]32OO4` [QHS, 3,6,9-trimethyl-9,10b-epidioxyperhydropyrano[4,3,2-jk]benzoxepin-2-one, reference compound] showed a Log10GI50 [1] greater than −4.00 M, a Log10LC50 [1] greater than −4.00 M and a Log10TGI [1] greater than −4.00 M. For the same molecule, the Log10GI50 [2] was −4.06 M, the Log10LC50 [2] was greater than −4.00 M and the Log10TGI [2] was −4.00 M. For the same molecule, the Log10GI50 [3] was greater than −4.00 M, the Log10LC50 [3] was greater than −4.00 M and the Log10TGI [3] was greater than −4.00 M. The Log10GI50 [4] was greater than −4.00 M, the Log10LC50 [4] was greater than −4.00 M and the Log10TGI [4] was greater than −4.00 M. The Log10GI50 [6] was greater than −4.00 M, the Log10LC50 [6] was greater than −4.00 M and the Log10TGI [6] was greater than −4.00 M. For the same molecule, the Log10GI50 [7] was greater than −4.00 M, the Log10LC50 [7] was greater than −4.00 M and the Log10TGI [7] was greater than −4.00 M. It also gave a Log10GI50 [8] greater than −4.00 M, a Log10LC50 [8] greater than −4.00 M and a Log10TGI [8] greater than −4.00 M. The Log10GI50 [27] was −4.10 M, the Log10LC50 [27] was greater than −4.00 M and the Log10TGI [27] was greater than −4.00 M. The Log10GI50 [28] was −4.17 M, the Log10LC50 [28] was greater than −4.00 M and the Log10TGI [28] was greater than −4.00 M. The Log10GI50 ([9]; MOLT-4 (Leukemia)) was −4.73 M, the “drug concentration necessary to achieve primary growth inhibition (percentage growth +50)” value [9] was “greater than 10^−4 molar” and the Log10GI50 [10] was greater than −4.00 M. For the same molecule, the Log10LC50 [10] was greater than −4.00 M, the Log10TGI [10] was greater than −4.00 M and the Log10GI50 [11] was −4.17 M. For the same molecule, the Log10LC50 [11] was greater than −4.00 M, the Log10TGI [11] was greater than −4.00 M and the Log10GI50 [12] was greater than −4.00 M. For the same molecule, the Log10LC50 [12] was greater than −4.00 M, the Log10TGI [12] was greater than −4.00 M and the Log10GI50 [14] was greater than −4.00 M. The Log10LC50 [14] was greater than −4.00 M, the Log10TGI [14] was greater than −4.00 M and the Log10GI50 [15] was −4.33 M. For the same molecule, the Log10LC50 [15] was greater than −4.00 M, the Log10TGI [15] was −4.00 M and the Log10GI50 [29] was greater than −4.00 M. For the same molecule, the Log10LC50 [29] was greater than −4.00 M, the Log10TGI [29] was greater than −4.00 M and the Log10LC50 [16] was greater than −4.00 M. It also gave a Log10TGI [16] greater than −4.00 M, a Log10GI50 [30] greater than −4.00 M and a Log10LC50 [30] greater than −4.00 M. For the same molecule, the Log10TGI [30] was greater than −4.00 M, the Log10GI50 [17] was greater than −4.00 M and the Log10LC50 [17] was greater than −4.00 M. It also gave a Log10TGI [17] greater than −4.00 M, a Log10GI50 [21] greater than −4.00 M and a Log10LC50 [21] greater than −4.00 M. For the same molecule, the Log10TGI [21] was greater than −4.00 M, the Log10GI50 [31] was greater than −4.00 M and the Log10LC50 [31] was greater than −4.00 M. It also gave a Log10TGI [31] greater than −4.00 M, a Log10GI50 [23] of −4.00 M and a Log10LC50 [23] greater than −4.00 M. The Log10TGI [23] was greater than −4.00 M, the Log10GI50 [24] was greater than −4.00 M and the Log10LC50 [24] was greater than −4.00 M. It also gave a Log10TGI [24] greater than −4.00 M, a Log10LC50 [25] greater than −4.00 M and a Log10TGI [25] greater than −4.00 M. It also gave a Log10GI50 [26] greater than −4.00 M, a Log10LC50 [26] greater than −4.00 M and a Log10TGI [26] greater than −4.00 M.
